Reference: patent US9125913B2, “Bcl-2-selective apoptosis-inducing agents for the treatment of cancer and immune diseases” (AbbVie Inc., priority 2008, dated 2015)

What follows are compounds tested on GST-Bcl-2 (assay: TR-FRET binding assay, Bcl-2). Details: TR-FRET Ki values.
Outline: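 Compounds serially diluted in DMSO from 50 μM (2× starting concentration, 10% DMSO), mixed with GST-tagged protein, F-Bak peptide probe and Tb-labeled antibody, incubated 3 h at room temperature.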

Compound	Binding selectivity ratio (Bcl-XL Ki/Bcl-2 Ki)
CC1(C)CCC(CN2CCN(c3ccc(C(=O)NS(=O)(=O)c4cnc(NCC5CCOCC5)c(C#N)c4)c(Oc4ccc5[nH]ccc5c4)c3)CC2)=C(c2ccc(Cl)cc2)C1 [EXAMPLE 352, 4-(4-{[2-(4-chlorophenyl)-4,4-dimethylcyclohex-1-en-1-yl]methyl}piperazin-1-yl)-N-({5-cyano-6-[(tetrahydro-2H-pyran-4-ylmethyl)amino]pyridin-3-yl}sulfonyl)-2-(1H-indol-5-yloxy)benzamide]	>96.7
CC1(C)CCC(CN2CCN(c3ccc(C(=O)NS(=O)(=O)c4ccc(NCC5CCOCC5)c(C#N)c4)c(Oc4ccc5[nH]ccc5c4)c3)CC2)=C(c2ccc(Cl)cc2)C1 [EXAMPLE 367, 4-(4-{[2-(4-chlorophenyl)-4,4-dimethylcyclohex-1-en-1-yl]methyl}piperazin-1-yl)-N-({3-cyano-4-[(tetrahydro-2H-pyran-4-ylmethyl)amino]phenyl}sulfonyl)-2-(1H-indol-5-yloxy)benzamide]	>143.2
CN1CCC(O)(CNc2ccc(S(=O)(=O)NC(=O)c3ccc(N4CCN(CC5=C(c6ccc(Cl)cc6)CC(C)(C)CC5)CC4)cc3Oc3ccc4[nH]ccc4c3)cc2[N+](=O)[O-])CC1 [EXAMPLE 183, 4-(4-{[2-(4-chlorophenyl)-4,4-dimethylcyclohex-1-en-1-yl]methyl}piperazin-1-yl)-N-[(4-{[(4-hydroxy-1-methylpiperidin-4-yl)methyl]amino}-3-nitrophenyl)sulfonyl]-2-(1H-indol-5-yloxy)benzamide]	240.5
CC1(C)CCC(CN2CCN(c3ccc(C(=O)NS(=O)(=O)c4ccc(NN5CCN(CCO)CC5)c([N+](=O)[O-])c4)c(Oc4ccc5[nH]ccc5c4)c3)CC2)=C(c2ccc(Cl)cc2)C1 [EXAMPLE 233, 4-(4-{[2-(4-chlorophenyl)-4,4-dimethylcyclohex-1-en-1-yl]methyl}piperazin-1-yl)-N-[(4-{[4-(2-hydroxyethyl)piperazin-1-yl]amino}-3-nitrophenyl)sulfonyl]-2-(1H-indol-5-yloxy)benzamide]	>2714.3
CC1(C)CCC(CN2CCN(c3ccc(C(=O)NS(=O)(=O)c4cnc(OCC5(F)CCOCC5)c(C#N)c4)c(Oc4cccc5[nH]ccc45)c3)CC2)=C(c2ccc(Cl)cc2)C1 [EXAMPLE 393, 4-(4-{[2-(4-chlorophenyl)-4,4-dimethylcyclohex-1-en-1-yl]methyl}piperazin-1-yl)-N-({5-cyano-6-[(4-fluorotetrahydro-2H-pyran-4-yl)methoxy]pyridin-3-yl}sulfonyl)-2-(1H-indol-4-yloxy)benzamide]	1110
CC1(C)CCC(CN2CCN(c3ccc(C(=O)NS(=O)(=O)c4ccc(NCCCn5ccnc5)c([N+](=O)[O-])c4)c(Oc4ccc5[nH]ccc5c4)c3)CC2)=C(c2ccc(Cl)cc2)C1 [EXAMPLE 377, 4-(4-{[2-(4-chlorophenyl)-4,4-dimethylcyclohex-1-en-1-yl]methyl}piperazin-1-yl)-N-[(4-{[3-(1H-imidazol-1-yl)propyl]amino}-3-nitrophenyl)sulfonyl]-2-(1H-indol-5-yloxy)benzamide]	2317.4
CC1(C)CCC(CN2CCN(c3ccc(C(=O)NS(=O)(=O)c4ccc(OCCC5CCOCC5)c([N+](=O)[O-])c4)c(Oc4cccc5[nH]ccc45)c3)CC2)=C(c2ccc(Cl)cc2)C1 [EXAMPLE 314, 4-(4-{[2-(4-chlorophenyl)-4,4-dimethylcyclohex-1-en-1-yl]methyl}piperazin-1-yl)-2-(1H-indol-4-yloxy)-N-{[3-nitro-4-(2-tetrahydro-2H-pyran-4-ylethoxy)phenyl]sulfonyl}benzamide]	>215.3
CC1(C)CCC(CN2CCN(c3ccc(C(=O)NS(=O)(=O)c4ccc(NCC5CCC(F)(F)CC5)c([N+](=O)[O-])c4)c(Oc4cccc5[nH]ncc45)c3)CC2)=C(c2ccc(Cl)cc2)C1 [EXAMPLE 412, 4-(4-{[2-(4-chlorophenyl)-4,4-dimethylcyclohex-1-en-1-yl]methyl}piperazin-1-yl)-N-[(4-{[(4,4-difluorocyclohexyl)methyl]amino}-3-nitrophenyl)sulfonyl]-2-(1H-indazol-4-yloxy)benzamide]	6545
CN1CCC(Oc2ccc(S(=O)(=O)NC(=O)c3ccc(N4CCN(CC5=C(c6ccc(Cl)cc6)CC(C)(C)CC5)CC4)cc3Oc3ccc4[nH]ccc4c3)cc2[N+](=O)[O-])CC1 [EXAMPLE 353, 4-(4-{[2-(4-chlorophenyl)-4,4-dimethylcyclohex-1-en-1-yl]methyl}piperazin-1-yl)-2-(1H-indol-5-yloxy)-N-({4-[(1-methylpiperidin-4-yl)oxy]-3-nitrophenyl}sulfonyl)benzamide]	>2260.0
CC(C1=C(c2ccc(Cl)cc2)CC(C)(C)CC1)N1CCN(c2ccc(C(=O)NS(=O)(=O)c3ccc(NC4CCN(C5CCOCC5)CC4)c([N+](=O)[O-])c3)c(Oc3ccc4[nH]ccc4c3)c2)CC1 (centres unmarked) [EXAMPLE 258, 4-(4-{1-[2-(4-chlorophenyl)-4,4-dimethylcyclohex-1-en-1-yl]ethyl}piperazin-1-yl)-2-(1H-indol-5-yloxy)-N-({3-nitro-4-[(1-tetrahydro-2H-pyran-4-ylpiperidin-4-yl)amino]phenyl}sulfonyl)benzamide]	86
C[C@H](Nc1ccc(S(=O)(=O)NC(=O)c2ccc(N3CCN(CC4=C(c5ccc(Cl)cc5)CC(C)(C)CC4)CC3)cc2Oc2ccc3[nH]ccc3c2)cc1[N+](=O)[O-])c1ccccc1 [EXAMPLE 378, 4-(4-{[2-(4-chlorophenyl)-4,4-dimethylcyclohex-1-en-1-yl]methyl}piperazin-1-yl)-2-(1H-indol-5-yloxy)-N-[(3-nitro-4-{[(1S)-1-phenylethyl]amino}phenyl)sulfonyl]benzamide]	>10.5
CC1(C)CCC(CN2CCN(c3ccc(C(=O)NS(=O)(=O)c4ccc(NC[C@H]5CC[C@H](O)CC5)c([N+](=O)[O-])c4)c(Oc4ccc5[nH]ccc5c4)c3)CC2)=C(c2ccc(Cl)cc2)C1 [EXAMPLE 310, Trans-4-(4-{[2-(4-chlorophenyl)-4,4-dimethylcyclohex-1-en-1-yl]methyl}piperazin-1-yl)-N-[(4-{[(4-hydroxycyclohexyl)methyl]amino}-3-nitrophenyl)sulfonyl]-2-(1H-indol-5-yloxy)benzamide]	>13469.4
CC1(C)CN(c2ccc(S(=O)(=O)NC(=O)c3ccc(N4CCN(Cc5ccccc5-c5ccc(Cl)cc5)CC4)cc3Oc3ccccc3)cc2)C1=O [Example 30, 4-{4-[(4′-chloro-1,1′-biphenyl-2-yl)methyl]piperazin-1-yl}-N-{[4-(3,3-dimethyl-2-oxoazetidin-1-yl)phenyl]sulfonyl}-2-phenoxybenzamide]	>6.4
CN1CCC(Nc2ccc(S(=O)(=O)NC(=O)c3ccc(N4CCN(CC5=C(c6ccc(Cl)cc6)CC(C)(C)CC5)CC4)cc3Oc3cccc4c3CCN4)cc2[N+](=O)[O-])CC1 [EXAMPLE 395, 4-(4-{[2-(4-chlorophenyl)-4,4-dimethylcyclohex-1-en-1-yl]methyl}piperazin-1-yl)-2-(2,3-dihydro-1H-indol-4-yloxy)-N-({4-[(1-methylpiperidin-4-yl)amino]-3-nitrophenyl}sulfonyl)benzamide]	23.62
CC1(C)CCC(CN2CCN(c3ccc(C(=O)NS(=O)(=O)c4ccc(NCCc5ccc(S(N)(=O)=O)cc5)c([N+](=O)[O-])c4)c(Oc4ccc5[nH]ccc5c4)c3)CC2)=C(c2ccc(Cl)cc2)C1 [EXAMPLE 376, N-{[4-({2-[4-(aminosulfonyl)phenyl]ethyl}amino)-3-nitrophenyl]sulfonyl}-4-(4-{[2-(4-chlorophenyl)-4,4-dimethylcyclohex-1-en-1-yl]methyl}piperazin-1-yl)-2-(1H-indol-5-yloxy)benzamide]	>29.5
COc1ccc(Nc2ccc(S(=O)(=O)NC(=O)c3ccc(N4CCN(CC5=C(c6ccc(Cl)cc6)CC(C)(C)CC5)CC4)cc3Oc3ccc4[nH]ccc4c3)cc2[N+](=O)[O-])cc1O [EXAMPLE 394, 4-(4-{[2-(4-chlorophenyl)-4,4-dimethylcyclohex-1-en-1-yl]methyl}piperazin-1-yl)-N-({4-[(3-hydroxy-4-methoxyphenyl)amino]-3-nitrophenyl}sulfonyl)-2-(1H-indol-5-yloxy)benzamide]	>263262.863980854
CC1(C)CCC(CN2CCN(c3ccc(C(=O)NS(=O)(=O)c4ccc(NC5CCN(CCCC(F)(F)F)CC5)c([N+](=O)[O-])c4)c(Oc4cccc5[nH]ccc45)c3)CC2)=C(c2ccc(Cl)cc2)C1 [EXAMPLE 210, 4-(4-{[2-(4-chlorophenyl)-4,4-dimethylcyclohex-1-en-1-yl]methyl}piperazin-1-yl)-2-(1H-indol-4-yloxy)-N-[(3-nitro-4-{[1-(4,4,4-trifluorobutyl)piperidin-4-yl]amino}phenyl)sulfonyl]benzamide]	>1057.6
CC1(C)CCC(CN2CCN(c3ccc(C(=O)NS(=O)(=O)c4ccc(S(C)(=O)=O)cc4)c(Oc4ccc5[nH]ccc5c4)c3)CC2)=C(c2ccc(Cl)cc2)C1 [EXAMPLE 382, 4-(4-{[2-(4-chlorophenyl)-4,4-dimethylcyclohex-1-en-1-yl]methyl}piperazin-1-yl)-2-(1H-indol-5-yloxy)-N-{[4-(methylsulfonyl)phenyl]sulfonyl}benzamide]	>573.9
CC1(C)CCC(CN2CCN(c3ccc(C(=O)NS(=O)(=O)c4ccc(NCC5CCS(=O)(=O)C5)c([N+](=O)[O-])c4)c(Oc4cccc5[nH]ccc45)c3)CC2)=C(c2ccc(Cl)cc2)C1 (centres unmarked) [EXAMPLE 326, 4-(4-{[2-(4-chlorophenyl)-4,4-dimethylcyclohex-1-en-1-yl]methyl}piperazin-1-yl)-N-[(4-{[(1,1-dioxidotetrahydrothien-3-yl)methyl]amino}-3-nitrophenyl)sulfonyl]-2-(1H-indol-4-yloxy)benzamide]	>5708.8
CN(C)CCCCNc1ccc(S(=O)(=O)NC(=O)c2ccc(N3CCN(Cc4ccccc4-c4ccc(Cl)cc4)CC3)cc2Oc2ccccc2)cc1[N+](=O)[O-] [Example 156, 4-{4-[(4′-chloro-1,1′-biphenyl-2-yl)methyl]piperazin-1-yl}-N-[(4-{[4-(dimethylamino)butyl]amino}-3-nitrophenyl)sulfonyl]-2-phenoxybenzamide]	53.1
